Assay results published in patent US11723362B2, “Broad-spectrum synergistic antimicrobial compositions” (The United States of America, as represented by the …, priority 2019, dated 2023).

Assays:
mold = assay: USP <51> preservative efficacy in nonionic spray cleaner base (mold); format: cell-based, A. brasiliensis; details: alone, 0.1% in spray cleaner base
From the text: (§1) Preservative challenge testing (USP-51).

P. aeruginosa ATCC 15442 = assay: AOAC Use Dilution test; format: cell-based, Pseudomonas aeruginosa; details: 60 carriers tested, ten minutes contact time
Procedure: (§2) MICROCHEM Laboratories completed the AOAC Use dilution, semi-quantitative test method against the 3 strains of bacteria using the maximum contact time of ten minutes with three replicates from the same sample submission. For the S. aureus testing, MICROCHEM Laboratories followed ASTM E2315 method with a 10 minute exposure but only a single replicate was tested. The ASTM E2315 quantitative test method was used by MICROCHEM Laboratories to access the performance of a single replicate of the test compounds against the MS2 virus using a 10 minute contact time.
(§3) The killing efficacy of Cuminaldehyde Guanylhydrazone (CG) in water against three bacteria was evaluated using the AOAC Use Dilution test. While a passing kill rate against Pseudomonas aeruginosa, and a close to, but just below the target kill rate, for Salmonella enterica were detected, a kill rate against Staphylococcus aureus was not achieved. The test results were the same for both concentrations tested (0.2 wt. % and 0.5 wt. %).

S. aureus ATCC 6538 = assay: AOAC Use Dilution test; format: cell-based, Staphylococcus aureus; details: 60 carriers tested, ten minutes contact time
Procedure: as §2, §3

S. enterica ATCC 10708 = assay: AOAC Use Dilution test; format: cell-based, Salmonella enterica; details: 60 carriers tested, ten minutes contact time
Procedure: as §2, §3

[1] = Stability of CG in commercial household products; format: physicochemical; details: nonionic spray cleaners, polishes, hand soap, liquid dish soap; refrigerator (2.8° C.), room temperature (21.1° C.), oven (40° C.), 3 freeze-thaw cycles
Procedure: Freeze-thaw studies were conducted using a commercial refrigerator freezer and were completed over a two week period where the samples were frozen, thawed and observed for 3 cycles. Additional samples were stored in 15 mL Falcon tubes in the refrigerator, at room temperature and in a 40° C. oven. These samples were removed and evaluated at three time points in conjunction with the freeze-thaw samples. The compositions of the household products in which CG was stable are listed below in tables 13 and 14. The “Surfactant Control” was composed as follows: 4% 1,3-propanediol, 4% alkyl polyglucoside (C8-C16), 2% ethoxylated fatty alcohol (Clariant Genapol LA 070), 90% deionized water. Cuminaldehyde Guanylhydrazone (CG) was added to several different commercial products. Stability testing was performed in refrigerator (2.8° C.), at room temperature (21.1° C.), in an oven (40° C.), and through 3 freeze-thaw cycles. It was determined that CG was stable in at least 4 different classes of household products including nonionic spray cleaners, polishes, hand soap, and liquid dish soap. […] Not intending to be theory-bound, these instabilities may be attributed mainly to carbonate, anionic surfactants, or high pH.

[2] = test system: E. coli, S. aureus, P. aeruginosa, A. brasiliensis, B. cepacia, and C. albicans; details: 0.2% in nonionic spray cleaner base lacking additional preservatives; 28 days
From the text: Preservative challenge testing (USP-51). The protocol for the preservative challenge testing followed the US Pharmacopeia Chapter 51 (USP 51). Under the USP 51 protocol, the test organisms are Candida albicans (ATCC No. 10231), Aspergillus brasiliensis (also referred to as A. niger) (ATCC No. 16404), Escherichia coli (ATCC No. 8739), Pseudomonas aeruginosa (ATCC No. 9027), and Staphylococcus aureus (ATCC No. 6538). To access the potency of a preservative in a personal care product formula, microorganisms were added separately to a sample of the product formula, such that their final concentrations were between 1.00E+05 and 1.00E+06 CFU (colony forming units)/mL of product. The inoculated personal care product formulas were incubated at specific temperatures (relative to the organism) and plated over the course of two weeks. During plating, the number of colony-forming units (CFU's) were counted to determine the number of viable microbial cells still present in the solution. Antimicrobial effectiveness is determined by logarithmic reductions in growth over time.
The effect of CG on mold, bacteria, and yeast were tested following the USP <51> procedure. […] For the instant examples, the criteria for passing the USP 51 preservative efficacy protocol against bacteria is a reduction of not less than 2-log 10 from the initial count at 14 days, and no increase from the 14 day count at 28 days. […]

S. aureus = assay: Minimum inhibitory concentration (MIC) in Mueller-Hinton broth, pH 7.4; format: cell-based, Staphylococcus aureus
Procedure: (§4) This example illustrates the preparation of testing parameters for antimicrobial activity of components of the inventive composition and related compositions for comparison. […] Microbes were grown on Mueller-Hinton agar (MHA, Sigma-Aldrich, St. Louis, Mo.) for 7 days until heavy sporulation was present. Spores from two agar plates were captured in sterile phosphate-buffered saline (PBS) using a sterile swab. Spores were enumerated by serial dilution in Dey-Engley neutralizing broth (DEB; Sigma-Aldrich) and spread plating on MHA. A typical spore stock was determined to contain ˜2×10^7 spores/mL. Bacteria were grown in MH broth for 24 h at 37° C., enumerated by plating, and diluted to the desired concentration as indicated.
(§5) To assess the antimicrobial activity of hydroxamic acids and derivatives, the inhibitory properties of commercially available hydroxylamines and hydroxamic acids were compared to their alcohol and carboxylic acid analogues diluted in Mueller-Hinton broth at pH 7.4 (Table 1).

P. aeruginosa = assay: as above; format: cell-based, Pseudomonas aeruginosa; parameters: Minimum inhibitory concentration: unit not given here; details: for Minimum inhibitory concentration: Table 2, ATCC 9027
Procedure: as §4, §5
Guanylhydrazones 7 and 8, which represent a class of broad-spectrum antimicrobials, alone and in combination with hydroxamic acids were evaluated.

A. brasiliensis = assay: as above; format: cell-based, Aspergillus brasiliensis; parameters: Minimum inhibitory concentration: unit not given here
Procedure: as §4, §5

E. coli = assay: as above; format: cell-based, Escherichia coli
Procedure: as §4, §5

C. albicans = assay: as above; format: cell-based, Candida albicans
Procedure: as §4, §5

A. brasiliensis 16404 = assay: USP-51 preservative challenge test of anionic, amphoteric surfactant-containing hand wash; format: cell-based, Aspergillus brasiliensis; details: HW pH 6; formulas: 0.4% 7; 0.5% CHA; 0.2% 7 + 0.5% CHA
Procedure: as §1
(§6) This example illustrates the surprising synergistic antimicrobial activity of the inventive composition and related compositions for comparison tested on two of the most persistent microorganisms tested in the USP 51 protocol: A. brasiliensis (ATCC No. 16404) and P. aeruginosa (ATCC NO. 9027). The effect of pH on antifungal properties of a HW formula containing 0.4% 7 and 0.5% CHA, alone and in combination, was then evaluated under a high fungal load (10^7 CFU/mL). […] Without intending to be bound by theory, it was suspected that the poor performance of the combination at neutral pH results from the milder conditions of this formula, which is more encouraging to mold growth.

[3] = test system: Aspergillus brasiliensis ATCC 16404; assay: Effect of pH on antifungal properties of HW formula under high fungal load; format: cell-based; details: 10^7 CFU/mL, pH 5.5-9.5
From the text: FIG. 1 illustrates the fungicidal properties of a handwash formula containing the inventive composition as further explained in the examples below. The Y axis presents the log reduction of cell forming units per mL (CFU/mL). The X axis presents the pH of the different formulas. Data for benzaldehyde guanylhydrazone 7+CHA is shown with black lines (BGH+CHA); data for benzaldehyde guanylhydrazone 7 (BGH) is shown with dotted lines; data for CHA alone is shown with grey lines.
as §6

[4] = Dissolution / compatibility in water (observation); format: physicochemical; details: solubilizing for testing; room temperature
Procedure: Several aryl derivatives of benzhydroxamic acid were also tested.

[5] = test system: Aspergillus brasiliensis ATCC 16404; assay: Fungicidal activity in ionic surfactant hand wash / foamy hand soap base formula (HW); format: cell-based; details: HW, pH 7.0; 0.4 wt %; 1 × 10^6 CFU/mL; 25° C.
Procedure: as §4
All test formulas were adjusted to the desired pH using citric acid and/or NaOH. […] All tubes were kept at room temperature (˜21-22° C.) for 3 weeks. About 100 μL of each inoculated foamy hand soap mixture was diluted 1:10 in DEB and 100 μL of this dilution was spread plated on MHA at several time points (e.g. 3 d, 7 d, 13 d, 18 d, and 20 d). Plates were incubated at room temperature for 3-5 days for mold (1-2 days for bacteria) and colonies enumerated.
The preservative activity of a hydroxamic acid/guanylhydrazone combination was compared to other antimicrobial mixtures in an ionic surfactant-containing formula. […] The fungicidal properties of a mixture of benzhydroxamic acid and guanylhydrazone (1+7) was compared to commercial antimicrobials representing different functional classes (Table 3).

[6] = test system: Pseudomonas aeruginosa ATCC 9027; assay: Bactericidal activity in ionic surfactant hand wash / foamy hand soap base formula (HW); format: cell-based; details: HW, pH 7.0; substance alone 0.1%; 1 × 10^6 CFU/ml; 37° C.
Procedure: This example illustrates the preparation of testing parameters for antimicrobial activity of components of the inventive composition and related compositions for comparison. […] Mold were grown and minimum inhibitory tests performed as previously reported (see e.g., Buckley, H. L. et al. ACS Sustain. Chem. Eng. 5, 4320-4331, 2017). Microbes were grown on Mueller-Hinton agar (MHA, Sigma-Aldrich, St. Louis, Mo.) for 7 days until heavy sporulation was present. Spores from two agar plates were captured in sterile phosphate-buffered saline (PBS) using a sterile swab. Spores were enumerated by serial dilution in Dey-Engley neutralizing broth (DEB; Sigma-Aldrich) and spread plating on MHA. A typical spore stock was determined to contain ˜2×10^7 spores/mL. Bacteria were grown in MH broth for 24 h at 37° C., enumerated by plating, and diluted to the desired concentration as indicated.
To test the various compounds, a foamy hand soap base formula was made with sodium lauryl sulfate (SLS, 2.4% w/w; Sulfochem SLS-PHP [30% active], The Lubrizol Corporation, Wickliffe, Ohio) and cocoamidopropyl betaine (CAPB, 1.2% w/w; Mackam 35 [30% active], Solvay S.A, Brussels, Belgium) in deionized water and sterilized by filtration (0.22 μm, PVDF; VWR, Radnor, Pa.). All test formulas were adjusted to the desired pH using citric acid and/or NaOH. All tubes were inoculated with 250 μL of spore inoculum (described above) to a total volume of 5 mL, for a final spore concentration of ˜1×10^6 spores/mL in each tube. […] About 100 μL of each inoculated foamy hand soap mixture was diluted 1:10 in DEB and 100 μL of this dilution was spread plated on MHA at several time points (e.g. 3 d, 7 d, 13 d, 18 d, and 20 d). Plates were incubated at room temperature for 3-5 days for mold (1-2 days for bacteria) and colonies enumerated.

O=C([O-])c1ccccc1.[Na+] [Sodium benzoate, sodium benzoate]
log reduction of mold (not eliminated to nondetectable levels) (mold): < 2 log

CC(C)c1ccc(/C=N/NC(=N)N)cc1 [CG, (2E)-2-{[4-(propan-2-yl)phenyl]methylidene} hydrazine-1-carboximidamidium]
log reduction of mold (not eliminated to nondetectable levels) (mold): < 4 log | Confirmed Positive carriers (P. aeruginosa ATCC 15442; CG 0.2 wt. % in water): 2 | Result (P. aeruginosa ATCC 15442; CG 0.2 wt. % in water): Pass (6) | Confirmed Positive carriers (P. aeruginosa ATCC 15442; CG 0.5 wt. % in water): 2 | Result (P. aeruginosa ATCC 15442; CG 0.5 wt. % in water): Pass (6) | Confirmed Positive carriers (S. aureus ATCC 6538; CG 0.2 wt. % in water): 12 | Result (S. aureus ATCC 6538; CG 0.2 wt. % in water): Fail (3) | Confirmed Positive carriers (S. aureus ATCC 6538; CG 0.5 wt. % in water): 12 | Result (S. aureus ATCC 6538; CG 0.5 wt. % in water): Fail (3) | Confirmed Positive carriers (S. enterica ATCC 10708; CG 0.2 wt. % in water): 2 | Result (S. enterica ATCC 10708; CG 0.2 wt. % in water): Fail (2) | Confirmed Positive carriers (S. enterica ATCC 10708; CG 0.5 wt. % in water): 2 | Result (S. enterica ATCC 10708; CG 0.5 wt. % in water): Fail (2) | stability in household products [1]: stable | USP 51 preservative efficacy protocol result against bacteria, yeast, and mold [2]: passed

CCCCCCCC(=O)NO [Caprylhydroxamic acid (CHA), Caprylhydroxamic acid]
MIC (S. aureus): 0.2 wt % | MIC (P. aeruginosa): 0.5 wt % | Minimum inhibitory concentration (P. aeruginosa): 0.5 | MIC (A. brasiliensis): 0.03 wt % | Minimum inhibitory concentration (A. brasiliensis; Table 2): 0.03 | MIC (E. coli): 0.1 wt % | MIC (C. albicans): 0.03 wt % | Log10 Reduction, Day 6 (A. brasiliensis 16404): 2.24 Log10 | log reduction over the entire pH range ([3]; HW with 0.5% CHA alone, plated six days after inoculation): 0-1 log | dissolution behaviour [4]: required heating and stirring to solubilize

N=C(N)NN=Cc1ccccc1 [Benzaldehyde guanylhydrazone 7, Benzaldehyde guanylhydrazone]
Minimum inhibitory concentration (P. aeruginosa): 0.06 | Log reduction Week 2 [5]: none | Day 3 Log Reduction [6]: 4 Log | Day 10 Log Reduction [6]: 4 Log | Log10 Reduction, Day 6 (A. brasiliensis 16404): 0.35 Log10 | antifungal performance over the pH range ([3]; HW with 0.4% 7 alone): poor performance, except at high pH
